Target: T1, Drosophila OR98a (Drosophila melanogaster, UniProt Q9VAZ3)
T1 construct: expressed in transfected cells
T1 sequence (Q9VAZ3 1-397): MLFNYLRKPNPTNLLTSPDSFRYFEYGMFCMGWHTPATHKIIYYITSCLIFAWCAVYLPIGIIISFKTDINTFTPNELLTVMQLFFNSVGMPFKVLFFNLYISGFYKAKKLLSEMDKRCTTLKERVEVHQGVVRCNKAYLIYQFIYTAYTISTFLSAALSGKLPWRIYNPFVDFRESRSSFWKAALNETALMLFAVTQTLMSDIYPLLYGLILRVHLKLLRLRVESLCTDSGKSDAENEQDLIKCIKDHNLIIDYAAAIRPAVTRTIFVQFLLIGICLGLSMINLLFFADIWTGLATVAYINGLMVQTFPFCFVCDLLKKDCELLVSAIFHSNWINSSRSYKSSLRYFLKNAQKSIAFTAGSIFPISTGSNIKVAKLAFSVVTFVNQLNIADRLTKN
T1 sequence (Q9VNB5 1-486 partner): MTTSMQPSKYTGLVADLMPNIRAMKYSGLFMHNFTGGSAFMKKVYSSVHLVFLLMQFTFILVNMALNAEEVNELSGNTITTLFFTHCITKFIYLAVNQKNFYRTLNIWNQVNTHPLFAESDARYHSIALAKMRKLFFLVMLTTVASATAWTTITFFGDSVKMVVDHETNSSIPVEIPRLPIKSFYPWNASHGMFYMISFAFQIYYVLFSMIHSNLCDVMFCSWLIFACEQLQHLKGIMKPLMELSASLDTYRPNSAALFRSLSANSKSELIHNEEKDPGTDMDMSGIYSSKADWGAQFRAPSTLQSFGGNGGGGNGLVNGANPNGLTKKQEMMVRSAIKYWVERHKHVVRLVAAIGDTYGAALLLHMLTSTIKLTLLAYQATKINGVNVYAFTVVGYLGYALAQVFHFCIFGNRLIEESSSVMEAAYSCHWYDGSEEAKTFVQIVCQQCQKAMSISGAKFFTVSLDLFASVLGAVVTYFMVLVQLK
Experiment: cell-based
Parameters: GCaMP6 calcium fluorescence in stable HEK293 OR+ORCO lines; peak dF normalised to 50 uM VUAA1 (=1)
Conditions: HEK293; relative to 50 uM VUAA1 response; below 0.05 set to 0; read-out: % activation
Experimental: Twelve thousand to 18,000 cells were plated into each well of a black wall, transparent bottom 384-well microplate (Greiner) 48 h or 72 h before the measurements and were simultaneously treated with 1 μg/mL doxycycline. […] The plate has 24 columns, thus we could record responses in up to eight different cell lines in each plate. On the day of the experiment, the growth medium was replaced with 20 µL assay buffer/well (140 mM NaCl, 5 mM KCl, 2 mM CaCl2, 1 mM MgCl2, 5 mM HEPES-Na, 20 mM glucose, pH 7.3, 340 mOsm). […] Baseline fluorescence (F0) was recorded for 5 s, after which 7 µL VOC buffer (140 mM NaCl, 5 mM KCl, 2 mM CaCl2, 1 mM MgCl2, 5 mM HEPES-Na, 31 mM glucose, 0.1% DMSO, pH 7.3, 340 mOsm) was injected into each well in one row and the fluorescence response was recorded for an additional 30 s, at a rate of one read/sec. VOC solutions (VOC buffer with 4× concentration of the final measured VOC concentration, 9 µL/well was injected) were measured on the same wells in a second round with the same protocol. Each individual concentration of a specific VOC sample was recorded in three wells for the same cell line on the same microplate. The raw data were exported in xls file format, F0 and FMAX values, and the fluorescence intensity changes (∆F) were calculated in Excel (Microsoft) (Supplementary file Data summary.xlsx) using the following equation: ΔF=FMAX-F0/F0 (see also Fig. 1C). On each plate, we recorded the response of each cell line to 50 µM VUAA1. The average of these ∆F values of each cell line were used to calculate the VUAA1-normalized values for the rest of the plate, by dividing VOC response ∆F values by the average VUAA1 response ∆F value of the corresponding OR cell line. Each VOC-OR combination was measured three times as tec The recorded FMAX, F0, ∆F, VUAA1-normalized ∆F values, as well as the OR name, the name of the tested sample, and the final concentration for each well were copied into supplementary file Data summary.xlsx, that was used to summarize all the plates recorded. Here, the averages of the measurements were calculated for each receptor-VOC-concentration combination. […] Each VOC was measured at 1, 10, and 100 µM final concentration on each receptor. VUAA1-normalized response was calculated as described in methods.

Compound | activity at 1 µM [%] | activity at 10 µM [%] | activity at 100 µM [%]
CC1=CCC[C@@]2(C)[C@@H]3CC[C@]12CC3(C)C [(−)-α-neoclovene] | 14.8 | – | –
C=C(C)C1CCC2(C)OC2C1 (single isomer, unassigned; (+)) [(+)-limonene oxide] | 0 | 0 | 0
C=C1CC[C@@]23C[C@@H]1C(C)(C)[C@@H]2CC[C@H]3C [(+)-beta-cedrene] | 8.55 | 5.99 | 6.08
C=C(C)[C@H]1CC=C(C)CC1 [(R)-(+)-limonene] | 0 | 0 | 0
C=C1[C@H]2CC[C@@H]3[C@H]2C(C)(C)CCC[C@]13C [(+)-longifolene] | 0 | 12.6 | 0

Source: publication PMC10709440, “High-throughput ligand profile characterization in novel cell lines expressing seven heterologous insect olfactory receptors for the detection of volatile plant biomarkers” (Scientific Reports, 2023)
